Laboratory results published in publication PMC8623418, “Novel Multitarget Hydroxamic Acids with a Natural Origin CAP Group against Alzheimer’s Disease: Synthesis, Docking and Biological Evaluation” (Pharmaceutics, 2021).

Legend:
[1] = test system: lipid peroxidation (LPO) of rat brain homogenate; experiment: Lipid peroxidation (LPO) of rat brain homogenate, TBARS test; format: biochemical; conditions: substances at 100 μM, mean ± SEM; for % of Activity, Inhibition of LPO, Fe (II): Fe (II)-induced; for % of Activity, Inhibition of LPO, t-BHP: t-BHP-induced
Protocol: To obtain the brain homogenate, rats preliminarily anesthetized with CO2 were decapitated with a guillotine. The brain was homogenized in a buffer containing KCl (120 mM) and HEPES (20 mM), pH = 7.4 at 4 °C, and centrifuged at 1500 rpm to obtain a supernatant. The protein was quantified according to the standard microbiuret method.
To investigate the effect of the compounds on lipid peroxidation (LPO) of rat brain homogenate, we used the modified version of the TBARS test, which is based on the reaction of 2-thiobarbituric acid with the end LPO product—malonic dialdehyde (MDA). The plate well, according to the experimental scheme, contained the compounds under study (100 μM), rat brain homogenate (2 mg/mL), as well as ferrous iron ions ([…]) at a concentration of 500 μM and 1.6 mM tert-butyl hydroxyperoxide as an initiator. After 30 min of incubation at 37 °C, TBARS reagent was added to all samples, incubated for 90 min at 90 °C, and centrifuged at 6000 rpm for 15 min. The optical density of the selected supernatant was measured on a Victor 3 plate reader (Perkin Elmer) at λ = 540 nm.
A rat brain homogenate preparation containing fragments of cell membranes was used as a model system to investigate the antioxidant activity of the hydroxamic acids. To initiate the process of lipid peroxidation, ferrous ions were used to trigger the Fenton reaction, during which the iron valence changes and a highly reactive hydroxyl radical is formed, and tert-butyl hydroxyperoxide as a direct source of free radicals.

[2] = DPPH test of antiradical activity; conditions: substances at 100 μM, mean ± SEM
Protocol: The DPPH test was used to examine antiradical activity based on the ability of a stable chromogen radical of 2,2-diphenyl-1-picrylhydrazyl (DPPH) to remove a hydrogen atom, which is accompanied by a change in the absorption maximum in the electronic absorption spectra. The amount of reduced DPPH was measured using a Cytation ™ 3 multifunctional plate analyzer (BioTek Instruments, Inc., Winooski, VT, USA) at a wavelength of 517 nm.
The antiradical activity of the test compounds was evaluated by the DPPH test, based on the ability of antioxidants to donate an electron to the stable chromogen radical DPPH, converting it into a nonradical form and neutralizing its activity. […] The chromogenic free radical DPPH used in this test has a large size, and substances even with a similar chemical structure may have different antiradical properties due to spatially difficult access.

HDAC6 = molecular target: T1, HDAC6 (Homo sapiens, UniProt Q9UBN7); experiment: HDAC6 enzyme activity, FLUOR DE LYS fluorometric kit; format: biochemical; conditions: mean ± SEM; read-out: IC50 HDAC6 Inhibitory Activity
T1 construct: purchased Enzo Life Sciences (Enzo Biochem, New York, NY, USA)
T1 sequence (Q9UBN7 1-1215): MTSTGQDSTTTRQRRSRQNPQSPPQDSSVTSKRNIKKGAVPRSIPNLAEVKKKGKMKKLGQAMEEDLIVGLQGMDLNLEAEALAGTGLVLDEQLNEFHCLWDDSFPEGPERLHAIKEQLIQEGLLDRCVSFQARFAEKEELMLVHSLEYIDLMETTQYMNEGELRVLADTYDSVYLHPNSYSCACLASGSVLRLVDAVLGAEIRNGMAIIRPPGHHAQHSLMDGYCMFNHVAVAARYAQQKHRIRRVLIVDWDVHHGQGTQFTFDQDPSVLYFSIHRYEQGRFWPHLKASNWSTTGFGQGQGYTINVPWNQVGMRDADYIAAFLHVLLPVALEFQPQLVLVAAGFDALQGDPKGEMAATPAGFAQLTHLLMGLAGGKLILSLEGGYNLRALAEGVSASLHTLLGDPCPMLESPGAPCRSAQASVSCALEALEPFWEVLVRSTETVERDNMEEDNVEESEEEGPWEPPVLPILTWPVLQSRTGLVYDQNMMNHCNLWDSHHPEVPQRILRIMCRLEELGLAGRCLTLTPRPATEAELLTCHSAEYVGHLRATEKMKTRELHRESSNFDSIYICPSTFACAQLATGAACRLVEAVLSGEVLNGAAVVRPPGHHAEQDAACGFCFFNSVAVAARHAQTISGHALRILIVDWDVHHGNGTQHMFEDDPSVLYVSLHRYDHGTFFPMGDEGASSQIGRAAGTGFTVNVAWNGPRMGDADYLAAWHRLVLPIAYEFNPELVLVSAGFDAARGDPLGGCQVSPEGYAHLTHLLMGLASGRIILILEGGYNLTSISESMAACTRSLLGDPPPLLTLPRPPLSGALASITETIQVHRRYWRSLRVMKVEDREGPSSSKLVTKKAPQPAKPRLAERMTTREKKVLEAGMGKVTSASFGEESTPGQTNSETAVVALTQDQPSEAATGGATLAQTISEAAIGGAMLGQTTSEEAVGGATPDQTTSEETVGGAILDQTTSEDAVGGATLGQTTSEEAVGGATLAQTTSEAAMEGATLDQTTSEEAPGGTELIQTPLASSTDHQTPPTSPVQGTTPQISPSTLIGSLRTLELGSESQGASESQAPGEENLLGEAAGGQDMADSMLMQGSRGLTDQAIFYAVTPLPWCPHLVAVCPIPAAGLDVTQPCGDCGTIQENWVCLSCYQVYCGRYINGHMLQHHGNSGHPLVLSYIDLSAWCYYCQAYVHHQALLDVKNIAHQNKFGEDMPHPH

β-amyloid 1–40 = β-amyloid 1–40 aggregation, Thioflavin T fluorescence; format: biochemical; conditions: 100 μM, 72 h incubation
Protocol: (§1) The effect of the studied compounds on the aggregation of β-amyloid (1–40/1–42) was analyzed using the method of recording Thioflavin T fluorescence (10 µM) for 72 h at 37 °C. The fluorescence signal was measured using a multifunctional flatbed analyzer, the Cytation ™ 3 (BioTek Instruments, Inc., Winooski, VT, USA), at λex = 450 nm, λem = 480 nm.
(§2) The effect of hydroxamic acids on the stage of aggregation of the pathological β-amyloid peptide was investigated for 72 h using two model systems—fragments Aβ1–40 and Aβ1–42. The fluorophore Thioflavin T was used as an indicator of the ongoing fibrillation process, the interaction of which with proteins in the state of amyloid fibrils leads to an increase in the fluorescence signal.

β-amyloid 1–42 = test system: T2, β-amyloid 1–42; experiment: β-amyloid 1–42 aggregation, Thioflavin T fluorescence; format: biochemical; conditions: 100 μM, 72 h incubation
T2 construct: fragments Aβ1–40 and Aβ1–42
Protocol: as §1, §2

SH-SY5Y cells = experiment: MTT cell viability, SH-SY5Y; format: cell-based; conditions: Homo sapiens, MTT test
Protocol: (§3) The effect of the hydroxamic acids on the viability of cells obtained from human embryonic kidneys, HEK 293, as well as the native form of human neuroblastoma, SH-SY5Y, was evaluated in the MTT test. Using a multifunctional flatbed analyzer, Cytation™3 (BioTek Instruments, Inc., Winooski, VT, USA), the optical density was determined at a wavelength of 530 nm. Based on the dose-dependent curves, the concentration values leading to 50% inhibition of cell population growth (IC50) were calculated.
(§4) Due to the fact that most compounds of the class of hydroxamic acids have high cytotoxic activity and are mainly used as anticancer drugs, their use as neuroprotective drugs is limited. Since the goal of our work was to search for agents for the pharmacological correction of neurodegenerative diseases, a necessary part of the biological activity study of the synthesized hydroxamic acids was to determine their effect on the survival of cell cultures. In our work, we used neuron-like neuroblastoma cells SH-SY5Y and a healthy cell line isolated from the human embryonic kidney, HEK 293.

HEK 293 cells = experiment: MTT cell viability, HEK 293; format: cell-based; conditions: Homo sapiens, HEK293; HEK-293, MTT test
Protocol: as §3, §4

SMILES | % of Activity, Inhibition of LPO, Fe (II) [1] | % of Activity, Inhibition of LPO, t-BHP [1] | % of Activity, Antiradical Activity [2] | IC50 (HDAC6) | Effect on β-amyloid 1–40 aggregation (β-amyloid 1–40) | Effect on β-amyloid 1–42 aggregation (β-amyloid 1–42) | IC50 (SH-SY5Y cells) | IC50 (HEK 293 cells) | melting point
O=C(CCCCCCCC(=O)NC1C2CC3CC(C2)CC1C3)NO (stereo not drawn) [compound 16, N^1-(Adamantan-2-yl)-N^9-Hydroxynonanediamide] | 26.41 ± 2.58% | 16.27 ± 0.42% | - (The ‘-’ mark indicates the lack of activity of the test substances (≤10%) in a particular test) | 0.74 ± 0.01 µM | noticeable fibrillation inhibition | noticeable fibrillation inhibition | > 100 µM | 49.5 ± 3.43 µM | 133.2 °C
CC1(C)[C@@H]2CCC1(C)[C@H](NC(=O)/C=C/c1ccc(C(=O)NO)cc1)C2 [compound 23, N-Hydroxy-4-((E)-3-Oxo-3-(((2R,4R)-1,7,7-Trimethylbicyclo[2.2.1]heptan-2-yl)amino)prop-1-en-1-yl)benzamide] | 32.91 ± 1.12% | 18.26 ± 4.90% | 20.14 ± 1.28% | 18 ± 1.02 µM | noticeable fibrillation inhibition | noticeable fibrillation inhibition | 64.2 ± 4.1 µM | 68.3 ± 2.22 µM | 202.5 °C
